Our source for the IC50 values is paper PMC8543760 (Cell chemical biology, 2018).

One may read the IC50 as the concentration at which inhibition is half-maximal. Low readings indicate greater potency in that assay, high ones weaker potency in that assay.

The test addresses cytoplasmic dynein 1 (Sus scrofa, UniProt A0A287B9W3). The test can be described thus: microtubule-stimulated ATPase assay. It counts as biochemical.

With `N#CC(=C(O)c1ccc(Cl)cc1Cl)c1nc2ccccc2c(=O)[nH]1` [Ciliobrevin A], the IC50 was ~84 µM.
